Results from article PMC6327983, “Discovery of cyanopyridine scaffold as novel indoleamine-2,3-dioxygenase 1 (IDO1) inhibitors through virtual screening and preliminary hit optimisation” (Journal of Enzyme Inhibition and Medicinal Chemistry, 2019).

System: not given
Assay: not given
Conditions: not given

First: N#Cc1ccccc1SCC(=O)Nc1ccc(F)cc1 [LBJ-02, 2-((2-Cyanophenyl)thio)-N-(4-fluorophenyl)acetamide]
Second: N#Cc1ccncc1SCC(=O)Nc1ccc(F)cc1 [LBJ-04, 2-((4-Cyanopyridin-3-yl)thio)-N-(4-fluorophenyl)acetamide]
The melting point of the first is higher: 215 to 217 °C for the first, 206 to 209 °C for the second.

First: N#Cc1cccnc1OCC(=O)Nc1ccc(F)cc1 [LBJ-01, 2-((3-Cyanopyridin-2-yl)oxy)-N-(4-fluorophenyl)acetamide]
Second: N#Cc1ncccc1SCC(=O)Nc1ccc(F)cc1 [LBJ-06, 2-((2-Cyanopyridin-3-yl)thio)-N-(4-fluorophenyl)acetamide]
The melting point of the first is higher: 234 to 236 °C for the first, 211 to 213 °C for the second.

First: N#Cc1ccc(C(F)(F)F)nc1SCC(=O)Nc1ccccc1F [LBJ-09, 2-((3-Cyano-6-(trifluoromethyl)pyridin-2-yl)thio)-N-(2-fluorophenyl)acetamide]
Second: N#Cc1ccc(C(F)(F)F)nc1SCC(=O)Nc1ccccc1 [LBJ-11, 2-((3-Cyano-6-(trifluoromethyl)pyridin-2-yl)thio)-N-phenylacetamide]
The melting point of the first is lower: 208 to 211 °C for the first, 230 to 233 °C for the second.

First: O=C(CSc1cccc(C(F)(F)F)n1)Nc1ccc(F)c(Cl)c1 [LBJ-14, N-(3-Chloro-4-fluorophenyl)-2-((6-(trifluoromethyl)pyridin-2-yl)thio)acetamide]
Second: N#Cc1ccc(C(F)(F)F)nc1SCC(=O)Nc1ccc(F)cc1 [LBJ-08, 2-((3-Cyano-6-(trifluoromethyl)pyridin-2-yl)thio)-N-(4-fluorophenyl)acetamide]
The melting point of the first is lower: 86 to 88 °C for the first, 201 to 204 °C for the second.

Compared with `Cc1ccc(C#N)c(SCC(=O)Nc2ccc(F)cc2)n1` [LBJ-07, 2-((3-Cyano-6-methylpyridin-2-yl)thio)-N-(4-fluorophenyl)acetamide], `Cc1ccc(NC(=O)CSc2nc(C(F)(F)F)ccc2C#N)cc1` [LBJ-12, 2-((3-Cyano-6-(trifluoromethyl)pyridin-2-yl)thio)-N-(p-tolyl)acetamide] is lower in melting point: 238 to 240 °C for the first, 212 to 214 °C for the second.

Work on `N#Cc1cnccc1SCC(=O)Nc1ccc(F)cc1` [LBJ-05, 2-((3-Cyanopyridin-4-yl)thio)-N-(4-fluorophenyl)acetamide] yielded a melting point of 232 to 234 °C.

Biological target: T1, IDO1 (Homo sapiens, UniProt P14902)
T1 construct: made in house
T1 sequence (P14902 whole entry): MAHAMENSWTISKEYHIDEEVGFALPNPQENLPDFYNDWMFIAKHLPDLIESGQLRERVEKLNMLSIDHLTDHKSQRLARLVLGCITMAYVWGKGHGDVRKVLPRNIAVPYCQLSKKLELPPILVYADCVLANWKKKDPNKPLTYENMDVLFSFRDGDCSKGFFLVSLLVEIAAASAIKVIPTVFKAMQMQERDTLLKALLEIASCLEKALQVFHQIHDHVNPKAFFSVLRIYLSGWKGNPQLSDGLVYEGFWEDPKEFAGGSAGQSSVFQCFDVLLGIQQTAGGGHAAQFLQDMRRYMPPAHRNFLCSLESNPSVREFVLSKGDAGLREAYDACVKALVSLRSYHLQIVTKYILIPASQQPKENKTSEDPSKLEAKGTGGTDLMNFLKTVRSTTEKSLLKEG
Assay: Enzyme-based IDO1 activity assay
Assay type: biochemical
Conditions: 10 μM compound, purified recombinant IDO1

Point of comparison: `COc1ccccc1-c1cc(C(=O)O)c2ccccc2n1` [LVS-020], “Inhibition ratio (%) @10 μM” value 0.11 ± 1.98%. Against it:
- Cn1c(=O)c(Sc2ccc(Cl)cc2)c(O)c2ccccc21 [LVS-023] — higher, 10.22 ± 1.11%
- COc1cccc(NC(=O)CSc2nc(N)c(C#N)cc2C#N)c1 [LVS-008] — higher, 4.31 ± 0.04%
- O=c1c2c(-c3ccc([N+](=O)[O-])cc3)csc2nc2n1CCC2 [LVS-004] — higher, 9.65 ± 0.09%
- O=S(=O)(c1cccc2cccc(Cl)c12)N1CCCC1 [LVS-013] — higher, 14.15 ± 0.38%
- O=C(Cn1nnnc1-c1ccccc1)c1ccc(Br)cc1 [LVS-030] — within error, 2.00 ± 0.28%
- CCOc1ccc(/C=c2\sc3nnc(-c4ccccc4Cl)n3c2=O)cc1 [LVS-015] — higher, 11.05 ± 0.02%
- Cc1ccc(NC(=O)COc2ccccc2CO)cc1 [LVS-014] — higher, 11.62 ± 1.19%
- O=C(Nc1ccc2nsnc2c1)c1ccc(F)cc1 [LVS-006] — higher, 15.83 ± 0.18%
- O=C(CSc1nnc2scc(-c3ccc(Cl)cc3)n12)Nc1ccc(F)cc1 [LVS-005] — higher, 30.73 ± 0.93%
- O=S(=O)(NC1CCCc2ccccc21)c1ccc(Br)cc1 (centres unmarked) [LVS-027] — higher, 3.37 ± 0.04%
- Cc1ccc(C(=O)CC2(O)C(=O)N(C)c3ccccc32)cc1 (centres unmarked) [LVS-029] — higher, 9.91 ± 0.65%
- O=C(CS(=O)(=O)c1ccccc1)Nc1ccc(Br)cn1 [LVS-022] — higher, 21.29 ± 0.22%

Same assay, conditions: purified human IDO1 enzyme

For `COc1cc2c(cc1OC)CN(C(=O)CSc1nc(C)cc(C)c1C#N)CC2` [LVS-051], the “Enzymatic assay IC50 (hIDO1)” value was “Not Converged”.
For `N#Cc1cc2c(nc1SCC(=O)Nc1cc(Cl)cc(Cl)c1)C1CCN2CC1` [LVS-053], the “Enzymatic assay IC50 (hIDO1)” value was “Not Converged”.
In the case of `CN1CCc2nc(SCC(=O)Nc3ccccc3)c(C#N)cc2C1` [LVS-054], the “Enzymatic assay IC50 (hIDO1)” value is reported as “Not Converged”.
With `Cc1cc(C)c(C#N)c(SCC(=O)Nc2cccc(C)c2C)n1` [LVS-038] the “Enzymatic assay IC50 (hIDO1)” value was “Not Converged”.
In the case of `Cc1cc(C)c(C#N)c(SCC(=O)Nc2nccs2)n1` [LVS-055], the “Enzymatic assay IC50 (hIDO1)” value is reported as “Not Converged”.
For `Cc1nc(SCC(=O)Nc2sc3c(c2C#N)CCC3)c(C#N)c(C)c1C` [LVS-046], the “Enzymatic assay IC50 (hIDO1)” value was “Not Converged”.
With `CN1CCc2nc(SCC(=O)Nc3sc4c(c3C#N)CCCC4)c(C#N)cc2C1` [LVS-050] the “Enzymatic assay IC50 (hIDO1)” value was “Not Converged”.

Same assay, conditions: purified human IDO1 enzyme; read-out: Enzymatic assay IC50 (hIDO1)

Point of comparison: `N#Cc1cc2c(nc1SCC(=O)Nc1nccs1)CCCCC2` [LVS-043], IC50 21.7 ± 3.18 µM. Against it:
- Cc1cc(C)c(C#N)c(SCC(=O)Nc2sc(C)c(C)c2C#N)n1 [LVS-036] — 3.6-fold higher, 78.7 ± 8.46 µM
- N#Cc1cc2c(nc1SCC(=O)Nc1ccc(F)cc1)CCCC2 [LVS-044] — 2.3-fold higher, 49.3 ± 10 µM
- Sc1nnc(-c2csc3c2CCCC3)n1Cc1ccccc1 [LVS-032] — 2.1-fold lower, 10.4 ± 1.01 µM
- O=[N+]([O-])c1ccc(Oc2nsnc2N2CCOCC2)cc1 [LVS-018] — within error, 18.4 ± 2.31 µM
- N#Cc1cccnc1OCC(=O)Nc1ccc(F)cc1 [LBJ-01, 2-((3-Cyanopyridin-2-yl)oxy)-N-(4-fluorophenyl)acetamide] — within error, 19.5 ± 0.28 µM
- CCN(CC)C(=O)CSc1nc(C)cc(C)c1C#N [LVS-033] — 1.7-fold higher, 36.6 ± 5.46 µM
- N#Cc1ccncc1SCC(=O)Nc1ccc(F)cc1 [LBJ-04, 2-((4-Cyanopyridin-3-yl)thio)-N-(4-fluorophenyl)acetamide] — 2-fold higher, 43.6 ± 0.85 µM
- Cc1sc2nc(SCC(=O)c3ccc(F)cc3)n(N)c(=O)c2c1C [LVS-001] — 1.5-fold lower, 14.2 ± 1.43 µM
- Cc1cc(C(F)(F)F)c(C#N)c(SCC(=O)Nc2ncc(Br)cc2Br)n1 [LVS-052] — 16-fold lower, 1.38 ± 0.57 µM
- COc1ccc(-c2ccc(C#N)c(SCC(=O)Nc3ccccc3Br)n2)cc1 [LVS-040] — 3.4-fold higher, 74.7 ± 15.2 µM
- N#Cc1c(C(F)(F)F)cc(-c2cccs2)nc1SCC(=O)Nc1ccc2ccccc2c1 [LVS-034] — 3.1-fold higher, 66.2 ± 14.3 µM
- COc1cccc(-c2ccc(C#N)c(SCC(=O)Nc3cccc(C)c3)n2)c1 [LVS-041] — 2.5-fold higher, 55.1 ± 10.1 µM
- N#Cc1ccc(C(F)(F)F)nc1SCC(=O)Nc1ccccc1F [LBJ-09, 2-((3-Cyano-6-(trifluoromethyl)pyridin-2-yl)thio)-N-(2-fluorophenyl)acetamide] — 3.7-fold lower, 5.81 ± 1.2 µM
- O=C(CSc1cccc(C(F)(F)F)n1)Nc1ccc(F)c(Cl)c1 [LBJ-14, N-(3-Chloro-4-fluorophenyl)-2-((6-(trifluoromethyl)pyridin-2-yl)thio)acetamide] — 1.6-fold higher, 35.7 ± 1.25 µM
- Cc1ccc(C#N)c(SCC(=O)Nc2ccc(F)cc2)n1 [LBJ-07, 2-((3-Cyano-6-methylpyridin-2-yl)thio)-N-(4-fluorophenyl)acetamide] — within error, 20.6 ± 1.12 µM
- 2-((3-Cyano-6-(trifluoromethyl)pyridin-2-yl)thio)-N-(p-tolyl)acetamide [LBJ-13] — within error, 23.6 ± 2.11 µM
- N#Cc1cnccc1SCC(=O)Nc1ccc(F)cc1 [LBJ-05, 2-((3-Cyanopyridin-4-yl)thio)-N-(4-fluorophenyl)acetamide] — within 1.5-fold, 18 ± 0.13 µM
- N#Cc1c(C(F)(F)F)cc(-c2cccs2)nc1SCC(=O)Nc1ccc(F)cc1 [LVS-037] — 2.5-fold higher, 54.7 ± 4.7 µM
- Cn1c(COc2ccccc2)c(C#N)c2ccccc21 [LVS-002] — 2.7-fold lower, 8.08 ± 1.3 µM
- N#Cc1cc2c(nc1SCC(=O)Nc1sc3c(c1C#N)CCCC3)CCCCCC2 [LVS-049] — within 1.5-fold, 14.8 ± 3.14 µM
- Cc1cc(C)c(C#N)c(SCC(=O)Nc2sc3c(c2C#N)CCC3)n1 [LVS-045] — within error, 26 ± 9.64 µM
- Cc1ccc(NC(=O)CSc2nc(C(F)(F)F)ccc2C#N)cc1 [LBJ-12, 2-((3-Cyano-6-(trifluoromethyl)pyridin-2-yl)thio)-N-(p-tolyl)acetamide] — within error, 17.9 ± 1.28 µM
- N#Cc1ccc(C(F)(F)F)nc1SCC(=O)Nc1ccc(F)cc1 [LBJ-08, 2-((3-Cyano-6-(trifluoromethyl)pyridin-2-yl)thio)-N-(4-fluorophenyl)acetamide] — 12-fold lower, 1.87 ± 0.83 µM
- N#Cc1ccc(C(F)(F)F)nc1SCC(=O)Nc1ccccc1 [LBJ-11, 2-((3-Cyano-6-(trifluoromethyl)pyridin-2-yl)thio)-N-phenylacetamide] — 2.3-fold lower, 9.61 ± 0.71 µM
- CCc1nc(SCC(=O)Nc2sc3c(c2C#N)CCC3)c(C#N)cc1C [LVS-047] — within error, 21.2 ± 7.1 µM
- COc1cccc(-c2ccc(C#N)c(SCC(=O)Nc3ccccc3Cl)n2)c1 [LVS-042] — 1.8-fold higher, 38.5 ± 6.09 µM
- COCc1cc(C)nc(SCC(=O)Nc2ccc(C)c(C)c2)c1C#N [LVS-035] — within error, 27.6 ± 6.82 µM
